The values that follow come from ChEMBL document CHEMBL5252609, “Design, synthesis, and antitumor evaluation of morpholine substituted bisnaphthalimides as DNA targeting agents” (Bioorg Med Chem Lett, 2023).

Structures are written as SMILES. Active and inactive are the calls of the source. The rule behind the calls is not given here.

The test system of one assay is A2780. The experiment in a line: Antiproliferative activity against human A2780 cells assessed as cell growth inhibition by MTT assay. The format is functional, cell-based. (In general: Tetrazolium assays rely on reduction of a dye to a coloured formazan, in cell work by metabolically active cells.)
In assay [1] the target is T1, DNA topoisomerase 1 (Homo sapiens) (UniProt P11387).
T1 sequence (whole entry): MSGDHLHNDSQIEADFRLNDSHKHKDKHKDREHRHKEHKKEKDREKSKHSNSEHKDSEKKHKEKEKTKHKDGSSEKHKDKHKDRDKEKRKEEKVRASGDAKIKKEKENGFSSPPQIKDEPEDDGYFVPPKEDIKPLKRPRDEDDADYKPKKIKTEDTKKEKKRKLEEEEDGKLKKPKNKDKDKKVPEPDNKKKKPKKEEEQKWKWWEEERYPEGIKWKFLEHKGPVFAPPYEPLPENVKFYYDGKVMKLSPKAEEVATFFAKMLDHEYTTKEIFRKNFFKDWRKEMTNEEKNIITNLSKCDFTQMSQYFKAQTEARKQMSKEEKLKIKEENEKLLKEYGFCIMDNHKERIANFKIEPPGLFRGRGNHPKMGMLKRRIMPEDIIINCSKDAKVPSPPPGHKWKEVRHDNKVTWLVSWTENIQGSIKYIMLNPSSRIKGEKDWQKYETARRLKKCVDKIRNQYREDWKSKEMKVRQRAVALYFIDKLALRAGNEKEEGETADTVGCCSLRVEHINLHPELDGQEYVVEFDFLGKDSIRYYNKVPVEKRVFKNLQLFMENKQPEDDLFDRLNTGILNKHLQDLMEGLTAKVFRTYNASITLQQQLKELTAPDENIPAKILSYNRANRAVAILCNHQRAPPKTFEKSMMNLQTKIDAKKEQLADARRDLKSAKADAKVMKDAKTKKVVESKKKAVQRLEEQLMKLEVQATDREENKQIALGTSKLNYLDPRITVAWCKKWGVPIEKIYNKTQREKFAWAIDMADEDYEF
Briefly: Inhibition of human DNA topoisomerase 1 assessed as reduction in pBR322 DNA relaxation upto 100 uM by gel electrophoresis method.

Assay [2] deals with MGC-803. Briefly: Antiproliferative activity against human MGC-803 cells assessed as cell growth inhibition by MTT assay. The assay is classed as functional, cell-based.
The species named for assay [3] is Homo sapiens. Briefly: Binding affinity to pBR322 DNA (unknown origin) assessed as DNA intercalation at 20 to 100 uM by electrophoresis assay. To be noted: dose 20-100 µM.
For the next assay, the system named is CNE-2. Briefly: Antiproliferative activity against human CNE-2 cells assessed as cell growth inhibition by MTT assay. The assay is classed as functional, cell-based.
In a further assay the test system is T-24. The experiment in a line: Antiproliferative activity against human T24 cells assessed as cell growth inhibition by MTT assay. The assay is classed as functional, cell-based.
For assay [4], the species on record is Homo sapiens. Briefly: Binding affinity to pBR322 DNA (unknown origin) assessed as induced retardation of DNA migration at 20 to 100 uM by gel electrophoresis assay. To be noted: dose 20-100 µM.
Assay [5] deals with MGC-803. The experiment in a line: Toxicity in nude mouse xenografted with human MGC-803 cells assessed as morphological changes in liver at 8 mg/kg, ip administrated every other day for 21 days. As to conditions: time 21.0 day. The format is functional, organism-based.
Assay [6] has as its system MGC-803. Briefly: Antitumor activity against human MGC-803 cells xenografted in nude mouse assessed as reduction in tumor weight at 4 mg/kg, ip administrated every other day for 21 days relative to control. The format is functional. The arrangement: scale not given: the % may be the effect or the level left. As to conditions: time 21 day. In general terms: Xenograft models place foreign cells or tissue in a host animal.

Assay [7] has as its system MGC-803. The experiment in a line: Antitumor activity against human MGC-803 cells xenografted in nude mouse assessed as reduction in tumor volume growth rate at 4 mg/kg, ip administrated every other day for 21 days relative to control. The format is functional. Set-up: scale not given: the % may be the effect or the level left. As to conditions: time 21 day.

The IC50 is the midpoint of a concentration-inhibition curve. Consider `O=C1c2cccc3cc([N+](=O)[O-])cc(c23)C(=O)N1CCNCCN1C(=O)c2cccc3cc([N+](=O)[O-])cc(c23)C1=O`, for which the IC50 in the assay with A2780 was 2.79 µM; with MGC-803 [2] it was 14.6 µM; in the assay on CNE-2 it was 4.51 µM; in the assay on T-24 it was 3.45 µM. The inhibition result in [1] was “inactive”. In addition, the outcome in the assay filed under Homo sapiens [3] and in the assay filed under Homo sapiens [4] was inactive.
For the molecule `O=C1c2cccc3c(N4CCCCC4)c([N+](=O)[O-])cc(c23)C(=O)N1CCNCCN1C(=O)c2cccc3c(N4CCCCC4)c([N+](=O)[O-])cc(c23)C1=O`, the IC50 in the assay with A2780, in the assay on MGC-803 [2], in the assay on CNE-2 and in the assay on T-24 was above 50 µM throughout.
Take `CN(C)CCN1C(=O)c2cccc3cc(N)cc(c23)C1=O` [AMONAFIDE]: the IC50 worked out at 11.7 µM with A2780, 5.25 µM with MGC-803 [2], 8.65 µM in the assay on CNE-2 and 7.23 µM with T-24.
On the same counts, the results for `O=C1c2cccc3c(N4CCC(N5CCCCC5)CC4)c([N+](=O)[O-])cc(c23)C(=O)N1CCNCCN1C(=O)c2cccc3c(N4CCC(N5CCCCC5)CC4)c([N+](=O)[O-])cc(c23)C1=O` are above 50 µM, above 50 µM, 9.25 µM and 14.8 µM.
As to `O=C1c2cccc3c(N4CCOCC4)c([N+](=O)[O-])cc(c23)C(=O)N1CCc1ccc2c(c1)OCO2`, the IC50 was 28.4 µM in the assay with A2780, 23.1 µM with MGC-803 [2], above 50 µM in the assay on CNE-2 and 23.6 µM with T-24.
Take `CN1CCN(c2c([N+](=O)[O-])cc3c4c(cccc24)C(=O)N(CCNCCN2C(=O)c4cccc5c(N6CCN(C)CC6)c([N+](=O)[O-])cc(c45)C2=O)C3=O)CC1`: the half-inhibitory concentration (IC50) in the assay on A2780 amounted to 0.42 µM; with MGC-803 [2] it was 2.05 µM; with CNE-2, 0.34 µM; in the assay with T-24, 0.65 µM. Further, in [1], the inhibition result is “inactive”. Further, the result in the assay listed under Homo sapiens [3] and in the assay listed under Homo sapiens [4] was Active.
Turning to `O=C1c2cccc3c(N4CCOCC4)c([N+](=O)[O-])cc(c23)C(=O)N1CCO`, the IC50 with A2780 was 22.8 µM; in the assay with MGC-803 [2], 11.8 µM; in the assay with CNE-2, 16.4 µM; with T-24, 9.34 µM.
Regarding `CN(C)CCN1C(=O)c2cccc3cc([N+](=O)[O-])cc(c23)C1=O` [MITONAFIDE], the Activity entry in the assay with MGC-803 [5] was “Toxic”; with MGC-803 [6] it was 34.2%; in the assay with MGC-803 [7] it was 54.2%. The half-inhibitory concentration (IC50) with A2780 turned out to be 5.22 µM; in the assay with MGC-803 [2] it was 3.32 µM; with CNE-2, 3.42 µM; with T-24 it was 3.25 µM.
For `CC(C)(C)OC(=O)N1CCN(c2c([N+](=O)[O-])cc3c4c(cccc24)C(=O)N(CCNCCN2C(=O)c4cccc5c(N6CCN(C(=O)OC(C)(C)C)CC6)c([N+](=O)[O-])cc(c45)C2=O)C3=O)CC1`, the IC50 in the assay with A2780, in the assay with MGC-803 [2], in the assay on CNE-2 and with T-24 was above 50 µM in each case.
